The record followed here is patent US7691900B2, “Tocopherol derivatives with a long hydroxylated chain, which can be used as neurotrophics” (AxoGlia Therapeutics S.A., priority 2003, dated 2010).

The assay relates to microglial cells activated by LPS. Kind of assay: Release of TNF-α (ELISA) in LPS-activated microglial cell cultures. As to conditions: microglia treated with 0.01 μg/ml LPS; 24 h activation; tested at 10^-5, 10^-6, 10^-7 M. Format: cell-based. As to the method:
2. Measurement of the Release of TNF-α
The expression of the TNF-a represents a parameter for microglial activation often analyzed in the literature. […] A 24 hrs activation by LPS leads to a high increase in the level of TNF-α expression detectable by the ELISA test.
In the experiments, the concentrations of TNF-α in the microglial cell cultures, treated with 0.01 μg/ml of LPS in the presence of TFA-10, TFA-12, TFA-14, TFA-16 and vitamin E, at concentrations of 10^−5, 10^−6 and 10^−7 M, were measured by the inventors after 24 hours activation.
On the technique in general: In an ELISA, binding on a coated surface is turned into a signal by an enzyme label.

As to vitamin E, the “activity on TNF-α production, in words” value is listed as “no activity”.
